The record followed here is the supplement of paper PMC10307832.

The first assay relates to NCI-H2228. Briefly: relative viability (nuclei count vs DMSO), 5 days (fraction); higher = more cells survive. Particulars: first compound 8 µM. A digest of the protocol: (§1)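 Relative viability is defined as nuclei in treated wells over nuclei in vehicle wells. Duplicate plates were run and medians reported. Lung cancer cell lines in 1536-well plates were dosed by pin tool one day after seeding, with one drug or with a fixed anchor-drug dose plus five library-drug doses (not always all listed) in √10 steps, and nuclei were counted after 5 days.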
`CCCCCCCCCCCC1=C(O)C(=O)C=C(O)C1=O` [Embelin] + N=C(N)NC(=N)NCCc1ccccc1 [Phenformin] (partner 250 µM) registered a relative viability of 0.309.

For `CCCCCCCCCCCC1=C(O)C(=O)C=C(O)C1=O` [Embelin] + O=C(c1cc(Cc2n[nH]c(=O)c3ccccc23)ccc1F)N1CCN(C(=O)C2CC2)CC1 [Olaparib] (partner 8 µM), the relative viability is 0.755.

As to `CCCCCCCCCCCC1=C(O)C(=O)C=C(O)C1=O` [Embelin] + CC(=O)Nc1cccc(-n2c(=O)n(C3CC3)c(=O)c3c(Nc4ccc(I)cc4F)n(C)c(=O)c(C)c32)c1 [Trametinib] (partner 0.02 µM), the relative viability is 0.455.

In another assay the test system is NCI-H2342. Described as above. Particulars: first compound 0.08 µM. A digest of the protocol: as §1
As for `CCCCCCCCCCCC1=C(O)C(=O)C=C(O)C1=O` [Embelin] + N=C(N)NC(=N)NCCc1ccccc1 [Phenformin] (partner 250 µM), the relative viability was 0.594.

Consider `CCCCCCCCCCCC1=C(O)C(=O)C=C(O)C1=O` [Embelin] + O=C(c1cc(Cc2n[nH]c(=O)c3ccccc23)ccc1F)N1CCN(C(=O)C2CC2)CC1 [Olaparib] (partner 8 µM), for which the relative viability turned out to be 0.482.

Molecule `CCCCCCCCCCCC1=C(O)C(=O)C=C(O)C1=O` [Embelin] + CC(=O)Nc1cccc(-n2c(=O)n(C3CC3)c(=O)c3c(Nc4ccc(I)cc4F)n(C)c(=O)c(C)c32)c1 [Trametinib] (partner 0.02 µM) gave a relative viability of 0.95.

As for `CCCCCCCCCCCC1=C(O)C(=O)C=C(O)C1=O` [Embelin] + Nc1ncn([C@H]2C[C@H](O)[C@@H](CO)O2)c(=O)n1 [Decitabine] (partner 2 µM), the relative viability was 0.71.

The molecule `CCCCCCCCCCCC1=C(O)C(=O)C=C(O)C1=O` [Embelin] + NC(=O)Nc1cc(-c2cccc(F)c2)sc1C(=O)N[C@H]1CCCNC1 [AZD7762] (partner 0.2 µM) gave a relative viability of 0.47.

The assay is the same for the next values; noted with them: first compound 0.8 µM.
With `CCCCCCCCCCCC1=C(O)C(=O)C=C(O)C1=O` [Embelin] + N=C(N)NC(=N)NCCc1ccccc1 [Phenformin] (partner 250 µM), the relative viability came to 0.551.

The molecule `CCCCCCCCCCCC1=C(O)C(=O)C=C(O)C1=O` [Embelin] + O=C(c1cc(Cc2n[nH]c(=O)c3ccccc23)ccc1F)N1CCN(C(=O)C2CC2)CC1 [Olaparib] (partner 8 µM) registered a relative viability of 0.432.

On to `CCCCCCCCCCCC1=C(O)C(=O)C=C(O)C1=O` [Embelin] + CC(=O)Nc1cccc(-n2c(=O)n(C3CC3)c(=O)c3c(Nc4ccc(I)cc4F)n(C)c(=O)c(C)c32)c1 [Trametinib] (partner 0.02 µM), for which the relative viability stood at 0.806.

Turning to `CCCCCCCCCCCC1=C(O)C(=O)C=C(O)C1=O` [Embelin] + Nc1ncn([C@H]2C[C@H](O)[C@@H](CO)O2)c(=O)n1 [Decitabine] (partner 2 µM), the relative viability stood at 0.722.

`CCCCCCCCCCCC1=C(O)C(=O)C=C(O)C1=O` [Embelin] + NC(=O)Nc1cc(-c2cccc(F)c2)sc1C(=O)N[C@H]1CCCNC1 [AZD7762] (partner 0.2 µM) came in with a relative viability of 0.514.

Staying with this assay, now noted: first compound 2.53 µM.
Regarding `CCCCCCCCCCCC1=C(O)C(=O)C=C(O)C1=O` [Embelin] + N=C(N)NC(=N)NCCc1ccccc1 [Phenformin] (partner 250 µM), the relative viability came to 0.701.

`CCCCCCCCCCCC1=C(O)C(=O)C=C(O)C1=O` [Embelin] + O=C(c1cc(Cc2n[nH]c(=O)c3ccccc23)ccc1F)N1CCN(C(=O)C2CC2)CC1 [Olaparib] (partner 8 µM) came in with a relative viability of 0.459.

As for `CCCCCCCCCCCC1=C(O)C(=O)C=C(O)C1=O` [Embelin] + CC(=O)Nc1cccc(-n2c(=O)n(C3CC3)c(=O)c3c(Nc4ccc(I)cc4F)n(C)c(=O)c(C)c32)c1 [Trametinib] (partner 0.02 µM), the relative viability was found to be 0.866.

In turn, `CCCCCCCCCCCC1=C(O)C(=O)C=C(O)C1=O` [Embelin] + Nc1ncn([C@H]2C[C@H](O)[C@@H](CO)O2)c(=O)n1 [Decitabine] (partner 2 µM) yielded a relative viability of 0.842.

For the molecule `CCCCCCCCCCCC1=C(O)C(=O)C=C(O)C1=O` [Embelin] + NC(=O)Nc1cc(-c2cccc(F)c2)sc1C(=O)N[C@H]1CCCNC1 [AZD7762] (partner 0.2 µM), the relative viability is 0.546.

Staying with this assay, now noted: first compound 8 µM.
The molecule `CCCCCCCCCCCC1=C(O)C(=O)C=C(O)C1=O` [Embelin] + N=C(N)NC(=N)NCCc1ccccc1 [Phenformin] (partner 250 µM) returned a relative viability of 0.516.

`CCCCCCCCCCCC1=C(O)C(=O)C=C(O)C1=O` [Embelin] + O=C(c1cc(Cc2n[nH]c(=O)c3ccccc23)ccc1F)N1CCN(C(=O)C2CC2)CC1 [Olaparib] (partner 8 µM) registered a relative viability of 0.427.

In the case of `CCCCCCCCCCCC1=C(O)C(=O)C=C(O)C1=O` [Embelin] + CC(=O)Nc1cccc(-n2c(=O)n(C3CC3)c(=O)c3c(Nc4ccc(I)cc4F)n(C)c(=O)c(C)c32)c1 [Trametinib] (partner 0.02 µM), the relative viability stood at 0.757.

For the molecule `CCCCCCCCCCCC1=C(O)C(=O)C=C(O)C1=O` [Embelin] + Nc1ncn([C@H]2C[C@H](O)[C@@H](CO)O2)c(=O)n1 [Decitabine] (partner 2 µM), the relative viability worked out at 0.741.

`CCCCCCCCCCCC1=C(O)C(=O)C=C(O)C1=O` [Embelin] + NC(=O)Nc1cc(-c2cccc(F)c2)sc1C(=O)N[C@H]1CCCNC1 [AZD7762] (partner 0.2 µM) had a relative viability of 0.456.

The subject of a further assay is NCI-H23. The description is as above. Particulars: first compound 0.08 µM. The method in brief:
as §1
In the case of `CCCCCCCCCCCC1=C(O)C(=O)C=C(O)C1=O` [Embelin] + N=C(N)NC(=N)NCCc1ccccc1 [Phenformin] (partner 250 µM), the relative viability came out at 0.771.

In the case of `CCCCCCCCCCCC1=C(O)C(=O)C=C(O)C1=O` [Embelin] + O=C(c1cc(Cc2n[nH]c(=O)c3ccccc23)ccc1F)N1CCN(C(=O)C2CC2)CC1 [Olaparib] (partner 8 µM), the relative viability came out at 0.298.

For the molecule `CCCCCCCCCCCC1=C(O)C(=O)C=C(O)C1=O` [Embelin] + CC(=O)Nc1cccc(-n2c(=O)n(C3CC3)c(=O)c3c(Nc4ccc(I)cc4F)n(C)c(=O)c(C)c32)c1 [Trametinib] (partner 0.02 µM), the relative viability was determined as 0.344.

Consider `CCCCCCCCCCCC1=C(O)C(=O)C=C(O)C1=O` [Embelin] + Nc1ncn([C@H]2C[C@H](O)[C@@H](CO)O2)c(=O)n1 [Decitabine] (partner 2 µM), for which the relative viability worked out at 0.258.

Take `CCCCCCCCCCCC1=C(O)C(=O)C=C(O)C1=O` [Embelin] + NC(=O)Nc1cc(-c2cccc(F)c2)sc1C(=O)N[C@H]1CCCNC1 [AZD7762] (partner 0.2 µM): the relative viability was 0.27.

The same assay, now with this note: first compound 0.8 µM.
On to `CCCCCCCCCCCC1=C(O)C(=O)C=C(O)C1=O` [Embelin] + N=C(N)NC(=N)NCCc1ccccc1 [Phenformin] (partner 250 µM), for which the relative viability came to 0.753.
